Assays:
mammalian retina = conditions: after exposure to damaging light; cited from earlier work
[1] = test system: bovine and primate retinal cell cultures; conditions: 160 μM crocin; cited from earlier work
primary human RPE cells = assay: Light-induced phototoxicity in primary human RPE cells, viability by MTT assay; type: cell-based; conditions: pre-treatment 100 μM crocin, 1 μM resveratrol or both; 300 mW/cm^2 for 60 min; FIG. 3
Description: (§1) When implementing the method, concentrations of 10 μM to 500 μM crocin and 0.1 μM to 25 μM resveratrol are beneficially employed for toxicity characterization. Moreover, concentrations of 100 μM crocin and 1 μM resveratrol are beneficially employed to investigate synergistic effects against light-induced phototoxicity with a final DMSO concentration of 0.1%. Beneficially, DMSO is added to cultures at 0.1% (v/v) as a solvent control.
For preparing the cell culture medium, primary RPE cells from three human donors (obtained 3 to 10 hours postmortem) without any history of eye disease were obtained from the Eye Bank of Ludwig Maximilian University. Dulbecco-modified Eagle medium (DMEM, obtainable from Biochrom, Berlin, Germany) supplemented with 10% fetal calf serum (FCS, obtainable from Biochrom, Berlin, Germany) was used as the cell culture medium when undertaking the experimental tests. […]
The aforesaid illumination is beneficially obtained from a spot-light source (LC-8, obtainable from Hamamatsu Photonics, Japan), although other illumination sources are optionally employed. […] For obtaining accurate experimental measurements, the illumination power and spectral range of illumination employed for the tests are beneficially measured using a spectrometer (C10083MD, obtainable from Hamamatsu Photonics), although other measuring instruments may be optionally employed. […]

primary RPE cells = assay: Toxicity testing on RPE cell cultures (MTT assay); conditions: 24 hours of exposure; crocin 10 μM to 500 μM, resveratrol 0.1 μM to 25 μM
Description: as §1
Dulbecco-modified Eagle medium (DMEM, obtainable from Biochrom, Berlin, Germany) supplemented with 10% fetal calf serum (FCS, obtainable from Biochrom, Berlin, Germany) was used as the cell culture medium when undertaking the experimental tests.
For determining cell survival rate after the aforesaid illumination, the tetrazolium dye-reduction assay (MTT); 3-[4,5-methylthiazol-2-yl]-2,2-diphenyl tetrazolium bromide) is beneficially used for determining the cell survival rate after aforesaid illumination has been applied. […] The serum-free cell culture medium is beneficially removed, the cells then washed with PBS, and thereafter 1000 μL of MTT solution (1.5 mL MTT stock, 2 mg/mL in PBS, together with 28.5 mL MEM) added to each well in the cell culture. […] Thereafter, absorption is beneficially measured by employing a scanning multiwell spectrophotometer operating at an interrogating radiation wavelength of 550 nm (apparatus obtainable from Molecular Probes). […]

mouse retina = conditions: in vitro and in vivo, sirtuin-independent pathway; cited from earlier work
retina = conditions: oral consumption in mice; cited from earlier work
human RPE cells = conditions: cited from earlier work
[2] = test system: vascular endothelial cells; conditions: cited from earlier work

Structure (SMILES): CC1=C(/C=C/C(C)=C/C=C/C(C)=C/C=C/C=C(C)/C=C/C=C(C)/C=C/C2=C(C)CCCC2(C)C)C(C)(C)CCC1 [beta-carotene]
- retinal morphology and function (mammalian retina): ineffective for maintaining retinal function, and only improved morphology

Structure (SMILES): CC(/C=C/C=C(\C)C(=O)O[C@@H]1O[C@H](CO[C@@H]2O[C@H](CO)[C@@H](O)[C@H](O)[C@H]2O)[C@@H](O)[C@H](O)[C@H]1O)=C\C=C\C=C(C)\C=C\C=C(/C)C(=O)O[C@@H]1O[C@H](CO[C@@H]2O[C@H](CO)[C@@H](O)[C@H](O)[C@H]2O)[C@@H](O)[C@H](O)[C@H]1O [crocin]
- photoreceptors surviving light exposure [1]: more than 90%
- decrease in viability of RPE cells after light exposure compared with cells not treated (primary human RPE cells): significantly smaller decrease in viability
- toxic effects in respect of RPE cell cultures (primary RPE cells): no significant toxic effects

Structure (SMILES): Oc1ccc(/C=C/c2cc(O)cc(O)c2)cc1 [resveratrol, 3,5,4″-trihydroxystilbene]
- decrease in viability of RPE cells after light exposure compared with cells not treated (primary human RPE cells): significantly smaller decrease in viability
- pathological angiogenesis (mouse retina): inhibit pathological angiogenesis
- retinal degradation related to light damage (retina): capable of preventing retinal degradation
- effect on acrolein-induced oxidative stress (human RPE cells): protective effects
- proliferation and migration of vascular endothelial cells [2]: inhibiting proliferation and migration
